Laboratory results from patent US12622941B2, “Anticoccidial composition comprising ginkgo leaves and use thereof” (CJ CHEILJEDANG CORPORATION, priority 2020, dated 2026).

Legend:
Eimeria maxima = experiment: Direct killing of protozoa (sporozoites), Eimeria maxima; format: cell-based; details: tested 1 to 500 ppm, vs PBS control
Method: (§1) In the present example, protozoan (sporozoite) direct killing ability evaluation was conducted against 3 representative Eimeria kinds known to be infected in most farms (E. tenella, E. acervulina, E. maxima).
(§2) A certain amount of oocysts of each protozoan was put in a tube containing glass beads and pulverized, and then to remove the crushed oocyst cell wall and other debris, internal sporocysts were purified using the percoll density gradient, and washed with PBS solution. A reagent comprising sodium taurocholic acid (Sigma aldrich, USA) and trypsin (Gibco, USA), respectively, was treated to sporocysts of Eimeria tenella, Eimeria acervulina and Eimeria maxima for excystation and they were incubated, and then they were washed with PBS solution once and protozoa were obtained.

Eimeria tenella [1] = experiment: Cell invasion inhibition of Eimeria tenella protozoa in MDBK cells (ITS-1 PCR); format: cell-based; details: read-out: Cell invasion inhibitory effect of protozoan (%)
Method: 100,000 MDBK cells (purchased from ATCC) were aliquoted in a 24-well plate, and then incubated at a temperature of 37° C. for 12 hours. […] After removing the cells and protozoa inside the cells through pipetting, DNA was extracted from the cells, and PCR was performed using E. tenella ITS-1 (Internal transcribed spacer-1) gene-specific primers. The sequences of the used primers were described in Table 10 below. Ct values before/after washing for each material were compared and corrected with the ΔCt value of the negative control group to calculate the cell invasion inhibition rate (%) of the protozoa through treatment of each material, and the result was shown in FIG. 2 and Table 11 below.

Eimeria acervulina [2] = experiment: Direct killing of protozoa (sporozoites), Eimeria acervulina; format: cell-based; details: tested 1 to 500 ppm, vs PBS control
Method: as §1, §2

Eimeria tenella [3] = experiment: Intracellular propagation inhibition of Eimeria tenella protozoa in MDBK cells (ITS-1 PCR); format: cell-based; details: read-out: Intracellular protozoal propagation inhibitory effect (%)
Method: 100,000 MDBK cells (purchased from ATCC) were aliquoted in a 24-well plate, and then incubated at a temperature of 37° C. for 12 hours. The protozoan of Eimeria tenella was obtained similar to the method of Example 2 above. […] A negative control group is a MDBK cell infected by protozoa, and a positive control group means a group in which salinomycin and diclazuril solution was incubated with the Eimeria tenella protozoan. After removing the cells and protozoa inside the cells through pipetting, DNA was extracted from the cells, and PCR was performed using E. tenella ITS-1 (Internal transcribed spacer-1) gene-specific primers. The sequences of the used primers were described in Table 10 above.
Ct values before/after washing for each material were compared to calculate the cell invasion inhibition rate (%) of the protozoa and the intracellular protozoan propagation inhibition rate (%) through treatment of the material, and the result was shown in FIG. 2 and Table 11 below.

Eimeria tenella [4] = experiment: Direct killing of protozoa (sporozoites), Eimeria tenella; format: cell-based; details: tested 1 to 500 ppm, vs PBS control
Method: as §1, §2

Eimeria tenella [5] = experiment: In vivo anticoccidial efficacy in broilers after Eimeria tenella challenge inoculation; details: in feed: salinomycin 60 ppm, diclazuril 1 ppm, ginkgo leaf powder 125 ppm; for Anticoccidial index (ACI): Equation 2, out of 200 points; for Lesion index: appendix lesion score x 10; for ADG after challenge inoculation / Survival rate (%): broilers; for ADG after challenge inoculation: before to 7th day after challenge; for Survival rate (%): up to 8th day after challenge; for Oocyst index: from oocyst excretion % of infected negative control; for Daily weight gain compared to negative control group (RWG, %): relative to non-infected negative control; for Appendix lesion score: scale 0-4, 8th day after challenge
Method: An in vivo anticoccidial efficacy evaluation test was performed in an animal experiment facility in Gyeongsangnam-do, South Korea. One-day-old female Ross broilers were individually weighed and randomly divided into groups to use in an experiment. Matters and conditions for experimental design were described in Table 2.
For the feed, Korea Feed A1-choi product was used, and each material diclazuril (Yuhan Corporation YUHAN DICLA product), salinomycin (Cheil Bio Cheilsalino-60 product), gallic acid (Sigma product), the ginkgo leaf product prepared in Example 1-2) was added to the feed, respectively, at a concentration described in Table 3 below to be self-mixed. Antibiotics and supplements were not used in general feed and mixed feed, and no anticoccidial agent other than each material was added. Broilers were fed ad libitum throughout the experiment period. After putting 30 1-day-age broilers in cages randomly placed for each of the control group or test group and breeding, general feed (A1-choi product) was fed for 7 days, and then the mixed feed prepared above was ingested by dividing by control group or test group.
The feed formulation administered to the control group (negative control group or positive control group) and test group and whether coccidiosis was induced by Eimeria tenella were described in Table 3 below.
14-day-old broilers were orally inoculated (challenge inoculation) with 10,000 oocysts (over 90% sporulated Eimeria tenella oocysts) per individual to induce coccidiosis.
The anticoccidial efficacy by test group designed in Example 1-3 above was shown as an anticoccidial index (ACI), and the anticoccidial index was calculated by Equation 2 below. The ACI score is out of 200 points, and the higher the ACI score, the more excellent the anticoccidial ability, and when it is 120 points or more to less than 140 points, it is determined that it is effective as an anticoccidial material, and when it is 140 points or more to less than 160 points, it is determined that it is excellent as an anticoccidial material, and when it is 160 points or more, it is determined that the anticoccidial effect is very excellent (Luis Miguel De Pablos et al., Anticoccidial activity of maslinic acid against infection with Eimeria tenella in chickens, Parasitol Res, 2010). Anticoccidial index(ACI)=(survival rate after challenge inoculation (%))+(daily weight gain compared to negative control group(RWG,%))−(lesion score×10)−(fecal oocyst excretion amount index)(Equation 2) • 1) Survival rate: the number of dead individuals was recorded daily, and post mortem autopsy was performed to determine a cause of mortality, and the number of individuals who died due to causes other than coccidiosis was excluded. The survival rate (%) up to the 8th day after challenge inoculation was used for anticoccidial index calculation.
• 3) Lesion scoring: On the 8th day after challenge inoculation, an autopsy was conducted for 4 broilers per cage, and the intestines were incised and opened. Scoring was performed for each coccidial lesion in the appendix region of the broilers. The lesion scoring method was performed by referring to Johnson J K & Reid W M (1970) document (Joyce Johnson, W. Malcolm Reid, Anticoccidial drugs: Lesion scoring techniques in battery and floor-pen experiments with chickens, Experimental parasitology, 1970). The lesion score is on a scale of 0-4, and 0 point corresponds to normal appendix, and 1 point is a mild infection symptom, and 2 points is a moderate infection symptom, and 3 points is a severe infection symptom and 4 points is a case of showing a very severe infection symptom or causing death. A lesion index was calculated by multiplying the measured appendix lesion score by 10, and this was used for anticoccidial index calculation.
• 4) Fecal oocyst excretion amount: the entire feces on the 6˜8th day of challenge inoculation were collected by cage, mixed evenly, and then randomly sampled 3 times in total by 1 g each. […]

Eimeria acervulina [6] = experiment: Eimeria acervulina sporozoite death rate by component of ginkgo leaf powder; format: cell-based
Method: as §2

Row | Structure (SMILES) | Minimum concentration for killing 50% protozoa (sporozoites) (ppm) (Eimeria maxima) | Minimum concentration for killing 50% protozoa (sporozoites) (ppm) (Eimeria acervulina [2]) | Minimum concentration for killing 50% protozoa (sporozoites) (ppm) (Eimeria tenella [4]) | Anticoccidial index (ACI) (Eimeria tenella [5]) | Lesion index (Eimeria tenella [5]) | ADG after challenge inoculation (Eimeria tenella [5]) | Survival rate (%) (Eimeria tenella [5]) | Oocyst index (Eimeria tenella [5]) | Daily weight gain compared to negative control group (RWG, %) (Eimeria tenella [5]) | Appendix lesion score (Eimeria tenella [5]) | Eimeria acervulina sporozoite death rate (%) (Eimeria acervulina [6]; 8 ppm) | Eimeria acervulina sporozoite death rate (%) (Eimeria acervulina [6]; 16 ppm) | Eimeria acervulina sporozoite death rate (%) (Eimeria acervulina [6]; 31 ppm) | Eimeria acervulina sporozoite death rate (%) (Eimeria acervulina [6]; 63 ppm) | Eimeria acervulina sporozoite death rate (%) (Eimeria acervulina [6]; 125 ppm) | Eimeria acervulina sporozoite death rate (%) (Eimeria acervulina [6]; 250 ppm) | Eimeria acervulina sporozoite death rate (%) (Eimeria acervulina [6]; 500 ppm) | also measured
1 | O=C(O)c1cc(O)c(O)c(O)c1 [Gallic acid, gallic acid] | >500 ppm | >500 ppm | >500 ppm |  |  |  |  |  |  |  |  |  |  |  |  |  |  | inhibition at 5 ppm (Eimeria tenella [1]; 5 ppm, MDBK cells, 24 hours): 76%; inhibition at 10 ppm (Eimeria tenella [1]; 10 ppm, MDBK cells, 24 hours): 90.1%; inhibition at 5 ppm (Eimeria tenella [3]; 5 ppm, MDBK cells): 0%; inhibition at 10 ppm (Eimeria tenella [3]; 10 ppm, MDBK cells): 0%; Minimum concentration for killing 50% protozoa (sporozoites) (ppm) (Eimeria tenella [4]; listed as gallic acid): > 500 ppm
2 | N#CC(c1ccc(Cl)cc1)c1c(Cl)cc(-n2ncc(=O)[nH]c2=O)cc1Cl (stereo not drawn) [Diclazuril, diclazuril] | >500 ppm | >500 ppm | 500 ppm | 148 | 29 | 62 g/day | 97% | 10 | 93% | 2.88 |  |  |  |  |  |  |  | inhibition at 0.5 ppm (Eimeria tenella [1]; 0.5 ppm, MDBK cells, 24 hours): 0%; inhibition at 1 ppm (Eimeria tenella [1]; 1 ppm, MDBK cells, 24 hours): 6.3%; inhibition at 0.5 ppm (Eimeria tenella [3]; 0.5 ppm, MDBK cells): 45.9%; inhibition at 1 ppm (Eimeria tenella [3]; 1 ppm, MDBK cells): 52.9%
3 | CC(C)(C)C1(O)CC2OC(=O)CC23C(=O)OC2OC(=O)C(O)C231 (stereo not drawn) [Bilobalide] |  |  |  |  |  |  |  |  |  |  | 0% | 0% | 0% | 8% | 14% | 41% | 51% | 
4 | CC[C@@H](C(=O)[C@@H](C)[C@@H](O)[C@H](C)[C@@H]1O[C@@H]([C@@H](CC)C(=O)O)CC[C@@H]1C)[C@H]1O[C@]2(C=C[C@@H](O)[C@]3(CC[C@@](C)([C@H]4CC[C@](O)(CC)[C@H](C)O4)O3)O2)[C@H](C)C[C@@H]1C [Salinomycin, salinomycin] | 250 ppm | 100 ppm | 125 ppm | 141 | 27 | 62 g/day | 93% | 20 | 94% | 2.7 |  |  |  |  |  |  |  | inhibition at 5 ppm (Eimeria tenella [1]; MDBK, 24 h): 50.1%; inhibition at 10 ppm (Eimeria tenella [1]; MDBK, 24 h): 56.4%; inhibition at 5 ppm (Eimeria tenella [3]; MDBK): 32.2%; inhibition at 10 ppm (Eimeria tenella [3]; MDBK): 34.8%
5 | O=c1c(O)c(-c2ccc(O)c(O)c2)oc2cc(O)cc(O)c12 [Quercetin] |  |  |  |  |  |  |  |  |  |  | 0% | 0% | 0% | 8% | 34% | 47% | 68% | 
6 | O=c1c(O)c(-c2ccc(O)cc2)oc2cc(O)cc(O)c12 [Kaempferol] |  |  |  |  |  |  |  |  |  |  | 0% | 0% | 0% | 0% | 1% | 27% | 54% | 
